Experiments:
[1] = system: differentiating NT2 cells; experiment: cells; type: cell-based, human
Description: (§1) As established in our previous study (Stern et al. [2014]), cells were seeded into 96-well plates (Corning Costar, Kaiserslautern, Germany) at 80,000 cells per well and incubated in DMEM/F12 with 10 µM retinoic acid (RA) for 4 days (one media change). Cells were incubated for further 5 days (one media change) in media containing 10 µM RA and up to seven concentrations of a test compound. On day 9 (5-day exposition), cell viability was measured using a resazurin reduction assay (Trinova Biochem, Giessen, Germany). Subsequently, cells were fixed for 15 min in PFA and immunolabeled for ß-tubulin type III as above (Fig. 1a). For control purposes, photographs were taken at × 20 magnification as above. Neuronal differentiation was determined by measuring red fluorescence (excitation 568 nm, emission 603 nm) in a multiwell-plate reader (Infinite 200, TECAN, Germany). As a confirmation of the viability data, cell number was also quantified by measuring DAPI fluorescence (excitation 350 nm, emission 488 nm).

NT2 precursor cells = experiment: cells; type: cell-based, human
Description: (§2) As established before (Stern et al. [2014]), NT2 precursor cells were seeded in 96-mm bacteriological grade Petri dishes (Greiner, Hamburg, Germany) at a density of 4 × 10^6–5 × 10^6 cells per dish. Within 24 h, cells formed free-floating spherical aggregates of 300–800 µm diameter. On the first day, 10 ml of culture medium was added to each Petri dish. On the next days, medium with 10 μM retinoic acid (RA) was added and changed every 2–3 days by transferring the cell suspension to centrifuge tubes and centrifuge at 200 × g for 7 min. After 9 days in culture, aggregates were gently resuspended using a Pasteur pipette, and seeded at 60,000 cells per well into black 96-well plates with flat transparent bottom (Nunc). Plates were lined with poly-D-lysine and laminin (10 µg/ml each), equipped with silicone stoppers from the Oris Cell Migration Assay (AMS Biotechnology, Abingdon, UK). Cells were allowed to adhere overnight. On the next day, stoppers were pulled leaving a monolayer of cells with a circular hole of 2-mm diameter. […] After one wash in PBS, cells were fixed for 15 min in PFA, washed twice in PBS-T and stained with DAPI (0.5 µg/ml) for 5 min, followed by two washes in PBS. A black 96-hole plastic mask leaving a central circular area of 2-mm diameter for each well was clipped to the bottom of the plate. This allows viewing only those cells that had migrated into the free areas left by the silicone stoppers during seeding (Fig. 1b). Migration was quantified by taking two photographs of each well and measuring the distance of the migration front from the black margin of the mask in using ImageJ. Occasional asymmetries caused by slight inaccuracies of silicone stopper placement were compensated by averaging measurements in four quadrants per well. […] Average null-migration values were subtracted from migrated distance before evaluation.

in vitro = details: human
Description: Dispersed cells were seeded into two identical poly-D-lysine (10 µg/ml) coated 96-well plates (Corning Costar, Kaiserslautern, Germany) at a density of 10,000 cells per well. Cultures were exposed to up to seven different concentrations of a test compound in DMEM/F12 (six technical replicates per concentration) for 24 h. One plate was immediately fixed in 4% paraformaldehyde in PBS (PFA) for 15 min. After 24 h, while a resazurin reduction assay (2 h) was performed on the other plate. […] Fixed cells were washed in PBS containing 0.1% Triton X100 (PBS-T) and immunolabeled for ß-tubulin type III (monoclonal anti ßtubIII, 1:20,000) using a red fluorescent secondary antibody (goat anti mouse-alexaFluor568, Invitrogen, Germany, 1:250) and DAPI (0.1 µg/ml) as nuclear counterstain. Cells were examined on a Zeiss Axiovert 200 inverted microscope equipped with a CoolSnap camera (Photometrics, Tucson, AZ, USA) and MetaMorph software (Molecular Devices, Sunnyvale, CA, USA), or a Zeiss Axiocam50 mono and Zeiss ZENlite 2.6 blue edition software. Two photographs/well at × 20 magnification were taken. Lengths of all neurites in the field of view were measured in ImageJ (http://imagej.nih.gov/ij) using the ‚segmented line ‘ tool (Fig. 1c) and divided by the number of ß-tubulin III-positive cells.

insect GABAa receptors = system: insect GABAa receptors; parameters: method as in Hainzl et al. [1996]; details: ref Hainzl et al. [1996]; cited from earlier work
[2] = Resazurin reduction viability assay in the cell migration assay; type: cell-based; details: human; migration assay, 44 h exposure; > = highest tested concentration; read-out: IC50 general cytotoxicity (resazurin), unspec. EP
Description: as §2

N2a neuroblastoma cells = system: N2a neuroblastoma cells; parameters: method as in Sidiropoulou et al. ([2011]); details: ref Sidiropoulou et al. ([2011]); cited from earlier work
NT2 neurons = experiment: cells; type: cell-based, human; details: Homo sapiens; 24 h exposure; total neurite length/neuron; normalized to solvent control; read-out: IC50 neurite outgrowth (spec. EP)
From the text: Two photographs/well at × 20 magnification were taken.

[3] = system: differentiating NT2 cells; experiment: Resazurin reduction viability assay in the neuronal differentiation assay; type: cell-based, human; details: differentiation assay, 5 days exposure; read-out: IC50 general cytotoxicity (resazurin), unspec. EP
Description: as §1

[4] = as above; type: cell-based, human; details: human
Description: as §1

SH-SY5Ycells = system: SH-SY5Ycells; parameters: method as in Ruangjaroon et al. [2017]; details: incompletely differentiated cells; ref Ruangjaroon et al. [2017]; cited from earlier work
zebrafish embryo = details: cited from earlier work
[5] = yes = at least one concentration of rescuing compound with specific endpoint significantly less affected

With N#Cc1nn(-c2c(Cl)cc(C(F)(F)F)cc2Cl)c(N)c1[S+]([O-])C(F)(F)F (centres unmarked) [Fipronil, 5-Amino-1-[2,6-dichloro-4-(trifluoromethyl)phenyl]-4-(trifluoromethylsulfinyl)pyrazole-3-carbonitrile] the IC50 ([1]; Homo sapiens, NT2, 120 h, 5 days exposure, read-out: IC50 neuronal differentiation (ß-tub III, spec. EP)) was 14.8 µM, the activity at 15.6 µM ([1]; Homo sapiens, NT2, 15.6 µM fipronil, read-out: ß-tubulin III-immunofluorescence (% of control)) was less than 50% and the “Rescue by NAC, neuronal differentiation” value [1, 5] was “yes”. For the same compound, the “Concentrations with significant differences between viability and migration” value (NT2 precursor cells; 44 h exposure) was no less than 15.63 µM, the IC50 (NT2 precursor cells; Homo sapiens, 44 h exposure, read-out: IC50 migration (spec. EP)) was 25.1 µM and the “Rescue by NAC, migration” value (NT2 precursor cells; [5]) was “yes”. For the same compound, the IC50 (in vitro) was greater than 62.5 µM, the “Higher affinity to insect GABAa receptors than to vertebrate GABA receptors” value (insect GABAa receptors) was “more than 100 fold” and the IC50 [2] was greater than 62.5 µM. For the same compound, the “Concentration reducing outgrowth of axon-like processes” value (N2a neuroblastoma cells) was 1 µM, the IC50 (NT2 neurons) was greater than 62.5 µM and the IC50 [3] was 23.4 µM. The viability ([4]; 15.6 µM fipronil, read-out: General viability (% of control)) was greater than 90%, the IC50 ([4]; differentiation assay, 5 days exposure, read-out: IC50 general cytotoxicity (resazurin), unspec. EP) was 23.2 µM and the “Concentration reducing process outgrowth of vimentin-positive protrusions, but not viability” value (SH-SY5Ycells) was 25 µM. The “Concentration inhibiting zebrafish neurogenesis” value (zebrafish embryo; via reduction of gene expression for neuron/glia differentiation, ref Park et al. [2020]) was ~ 33 µM and the “Concentration disturbing development of motor circuits” value (zebrafish embryo; zebrafish embryo, ref Stehr et al. [2006]) was 0.7 µM.

Reference: publication PMC8275550, “Developmental Neurotoxicity of Fipronil and Rotenone on a Human Neuronal In Vitro Test System” (Neurotoxicity Research, 2021)
